Counter-ions that a name gives are not always drawn.
Experiments:
[1] = system: late components of human complement (C3-C9); assay: Test Code 035 (C3-C9 inhibitor); assay type: biochemical; conditions: serial two fold dilution assay; higher well number indicates higher activity; protection of EAC 142 from lysis
Protocol: (§1) An active inhibitor protects C2 from C1 and C4; (ii) Test Code 035 (C3-C9 inhibitor)-This test determines the ability of the late components of human complement (C3-C9) to lyse EAC 142 in the presence of appropriate dilutions of the test compound. An active inhibitor protects EAC 142 from lysis by human C3-C9; and (iii) Cap 50 Test-Here, appropriate amounts of the test compound are added to a pool of guinea pig serum in vitro, after which the undiluted serum capillary tube assay of U.S. Pat. No. 3,876,376 is run. The concentration of compound inhibiting 50% is reported.

activated human C1 = assay: Test Code 026 (C1 inhibitor); assay type: biochemical; conditions: serial two fold dilution assay; higher well number indicates higher activity; protection of human C2 from C1 and C4
Protocol: as §1

| Structure (SMILES) | 035 (C3-C9 inhibitor), activity in wells [1] [wells] | 026 (C1 inhibitor), activity in wells (activated human C1) [wells] |
| --- | --- | --- |
| O=C(O)c1cc(OS(=O)(=O)O)c2c(c1)[C@H]([C@H]1c3cccc(O[C@@H]4O[C@H](COS(=O)(=O)O)[C@@H](OS(=O)(=O)O)[C@H](OS(=O)(=O)O)[C@H]4OS(=O)(=O)O)c3C(=O)c3c(OS(=O)(=O)O)cc(C(=O)O)cc31)c1cccc(O[C@@H]3O[C@H](COS(=O)(=O)O)[C@@H](OS(=O)(=O)O)[C@H](OS(=O)(=O)O)[C@H]3OS(=O)(=O)O)c1C2=O (relative stereo) [(R*,S*)-5,5'-Bis-(β-D-glucopyranosyloxy)-9,9',10,10'-tetrahydro-4,4'-dihydroxy-10,10'-dioxo-[9,9'-bianthracene]-2,2'-dicarboxylic acid, decakis (H-sulfate), decasodium salt] | 1 | 7 |
| O=C(O)c1cc(OS(=O)(=O)O)c2c(c1)C(C1c3cccc(OC4OC(COS(=O)(=O)O)C(OS(=O)(=O)O)C(OS(=O)(=O)O)C4OS(=O)(=O)O)c3C(=O)c3c(OS(=O)(=O)O)cc(C(=O)O)cc31)c1cccc(OC3OC(COS(=O)(=O)O)C(OS(=O)(=O)O)C(OS(=O)(=O)O)C3OS(=O)(=O)O)c1C2=O [(R*,R*)-5,5'-Bis-(β-D-glucopyranosyloxy)-9,9',10,10'-tetrahydro-4,4'-dihydroxy-10,10'-dioxo-[9,9'-bianthracene]-2,2'-dicarboxylic acid, decakis (H-sulfate), decasodium salt] | 2 | 8 |

From patent publication US4402944A, “Polysulfonate Sennoside A & B compounds and method of use” (American Cyanamid Company, priority 1982, dated 1983)
